Active and inactive are the calls of the source. No cut-off for these calls is given here.
Columns and labels:
Mus musculus [1] = test: Anticonvulsant activity in Mus musculus (mouse) assessed as protection against subcutaneous pentylene tetrazole-induced seizure at 300 mg/kg, ip after 0.5 hr; format: functional, organism-based; parameters: dose 300 mg/kg
Mus musculus [2] = test: Anticonvulsant activity in ip dosed Mus musculus (mouse) assessed as protection against subcutaneous pentylene tetrazole-induced seizure after 4 hr; format: functional; conditions: read-out: MED
Mus musculus [3] = test: Anticonvulsant activity in ip dosed Mus musculus (mouse) assessed as protection against maximal electroshock-induced seizure after 4 hr; format: functional; conditions: read-out: MED
Mus musculus [4] = test: Anticonvulsant activity in Mus musculus (mouse) assessed as protection against maximal electroshock-induced seizure at 300 mg/kg, ip after 0.5 hr; format: functional, organism-based; parameters: dose 300 mg/kg
Mus musculus [5] = test: Neurotoxicity in Mus musculus (mouse) assessed as minimal motor impairment at 300 mg/kg, ip after 4 hr by rotarod test; format: toxicity, organism-based; parameters: dose 300 mg/kg, route intraperitoneal; conditions: in vivo
Mus musculus [6] = test: Neurotoxicity in Mus musculus (mouse) assessed as minimal motor impairment at 300 mg/kg, ip after 0.5 hr by rotarod test; format: toxicity, organism-based; parameters: dose 300 mg/kg, route intraperitoneal; conditions: in vivo
Mus musculus [7] = test: Anticonvulsant activity in ip dosed Mus musculus (mouse) assessed as protection against maximal electroshock-induced seizure after 0.5 hr; format: functional; conditions: read-out: MED
Mus musculus [8] = test: Neurotoxicity in Mus musculus (mouse) assessed as increase in immobility time at 30 mg/kg, ip administered 30 min before test measured for 5 min by forced swimming test; format: toxicity, organism-based; parameters: dose 30 mg/kg, route intraperitoneal; conditions: in vivo
Mus musculus [9] = test: Anticonvulsant activity in Mus musculus (mouse) assessed as protection against subcutaneous pentylene tetrazole-induced seizure at 300 mg/kg, ip after 4 hr; format: functional, organism-based; parameters: dose 300 mg/kg
Mus musculus [10] = test: Anticonvulsant activity in ip dosed Mus musculus (mouse) assessed as protection against subcutaneous pentylene tetrazole-induced seizure after 0.5 hr; format: functional; conditions: read-out: MED
Mus musculus [11] = test: Neurotoxicity in ip dosed Mus musculus (mouse) assessed as minimal motor impairment after 4 hr by rotarod test; format: toxicity, organism-based; conditions: in vivo
Mus musculus [12] = test: Neurotoxicity in ip dosed Mus musculus (mouse) assessed as minimal motor impairment after 0.5 hr by rotarod test; format: toxicity, organism-based; conditions: in vivo

With `O=C(NN1C(=O)C(Cl)C1c1ccccc1[N+](=O)[O-])c1ccncc1` (stereo not given) the Activity (Mus musculus [1]) was “inactive”, the minimal effective dose (Mus musculus [2]) was 300 mg/kg and the minimal effective dose (Mus musculus [3]) was 300 mg/kg. The Activity (Mus musculus [4]) was “inactive”, the Activity (Mus musculus [5]) was “Non-toxic” and the Activity (Mus musculus [6]) was “Non-toxic”.
With `CN(C)c1ccc(C2C(Cl)C(=O)N2NC(=O)c2ccncc2)cc1` (stereo not given) the Activity (Mus musculus [1]) was “inactive”, the minimal effective dose (Mus musculus [2]) was 100 mg/kg and the minimal effective dose (Mus musculus [3]) was 100 mg/kg. The minimal effective dose (Mus musculus [7]) was 100 mg/kg, the Activity (Mus musculus [8]) was 49.83% and the Activity (Mus musculus [5]) was “Non-toxic”. For the same compound, the Activity (Mus musculus [6]) was “Non-toxic”.
In the case of `COc1ccccc1C1C(Cl)C(=O)N1NC(=O)c1ccncc1` (stereo not given), the Activity (Mus musculus [9]) is reported as “inactive”, the Activity (Mus musculus [1]) is reported as “inactive” and the minimal effective dose (Mus musculus [3]) is reported as 300 mg/kg. For the same compound, the Activity (Mus musculus [4]) was “inactive”, the Activity (Mus musculus [5]) was “Non-toxic” and the Activity (Mus musculus [6]) was “Non-toxic”.
With `NC(=O)N1c2ccccc2C=Cc2ccccc21` [CARBAMAZEPINE] the minimal effective dose (Mus musculus [10]) was 100 mg/kg, the minimal effective dose (Mus musculus [2]) was 300 mg/kg and the minimal effective dose (Mus musculus [3]) was 100 mg/kg. For the same compound, the minimal effective dose (Mus musculus [7]) was 30 mg/kg, the Activity (Mus musculus [8]) was 30.66% and the Activity (Mus musculus [6]) was “Non-toxic”. For the same compound, the MTC (Mus musculus [11]) was 30 mg/kg.
With `O=C(NN1C(=O)C(Cl)C1c1ccc(O)cc1)c1ccncc1` (stereo not given) the Activity (Mus musculus [1]) was “inactive”, the minimal effective dose (Mus musculus [2]) was 300 mg/kg and the minimal effective dose (Mus musculus [3]) was 100 mg/kg. The Activity (Mus musculus [4]) was “inactive”, the Activity (Mus musculus [6]) was “Non-toxic” and the MTC (Mus musculus [11]) was 300 mg/kg.
In the case of `O=C(NN1C(=O)C(Cl)C1c1ccccc1)c1ccncc1` (stereo not given), the minimal effective dose (Mus musculus [10]) is reported as 100 mg/kg, the minimal effective dose (Mus musculus [2]) is reported as 100 mg/kg and the minimal effective dose (Mus musculus [3]) is reported as 100 mg/kg. The minimal effective dose (Mus musculus [7]) was 100 mg/kg, the Activity (Mus musculus [8]) was 11.5% and the Activity (Mus musculus [5]) was “Non-toxic”. The Activity (Mus musculus [6]) was “Non-toxic”.
With `O=C(NN1C(=O)C(Cl)C1c1ccc([N+](=O)[O-])cc1)c1ccncc1` (stereo not given) the minimal effective dose (Mus musculus [10]) was 300 mg/kg, the minimal effective dose (Mus musculus [2]) was 100 mg/kg and the minimal effective dose (Mus musculus [3]) was 100 mg/kg. The Activity (Mus musculus [4]) was “inactive”, the Activity (Mus musculus [6]) was “Non-toxic” and the MTC (Mus musculus [11]) was 300 mg/kg.
`COc1ccc(C2C(Cl)C(=O)N2NC(=O)c2ccncc2)cc1OC` (stereo not given) gave a minimal effective dose (Mus musculus [10]) of 100 mg/kg, a minimal effective dose (Mus musculus [2]) of 100 mg/kg and a minimal effective dose (Mus musculus [3]) of 100 mg/kg. The minimal effective dose (Mus musculus [7]) was 100 mg/kg, the Activity (Mus musculus [8]) was 33.83% and the Activity (Mus musculus [5]) was “Non-toxic”. The Activity (Mus musculus [6]) was “Non-toxic”.
`O=C(NN1C(=O)C(Cl)C1c1ccccc1O)c1ccncc1` (stereo not given) was tested, and the Activity (Mus musculus [9]) was “inactive”, the Activity (Mus musculus [1]) was “inactive” and the minimal effective dose (Mus musculus [3]) was 300 mg/kg. The Activity (Mus musculus [4]) was “inactive”, the Activity (Mus musculus [5]) was “Non-toxic” and the Activity (Mus musculus [6]) was “Non-toxic”.
In the case of `COc1cc(C2C(Cl)C(=O)N2NC(=O)c2ccncc2)ccc1O` (stereo not given), the Activity (Mus musculus [1]) is reported as “inactive”, the minimal effective dose (Mus musculus [2]) is reported as 300 mg/kg and the minimal effective dose (Mus musculus [3]) is reported as 100 mg/kg. The minimal effective dose (Mus musculus [7]) was 300 mg/kg, the Activity (Mus musculus [5]) was “Non-toxic” and the Activity (Mus musculus [6]) was “Non-toxic”.
`O=C(NN1C(=O)C(Cl)C1c1ccc(Cl)cc1)c1ccncc1` (stereo not given) was tested, and the minimal effective dose (Mus musculus [10]) was 100 mg/kg, the minimal effective dose (Mus musculus [2]) was 100 mg/kg and the minimal effective dose (Mus musculus [3]) was 100 mg/kg. For the same compound, the minimal effective dose (Mus musculus [7]) was 300 mg/kg, the Activity (Mus musculus [8]) was 54.54% and the Activity (Mus musculus [5]) was “Non-toxic”. The Activity (Mus musculus [6]) was “Non-toxic”.
With `Cc1ccc(C2C(Cl)C(=O)N2NC(=O)c2ccncc2)cc1` (stereo not given) the minimal effective dose (Mus musculus [10]) was 100 mg/kg, the minimal effective dose (Mus musculus [2]) was 30 mg/kg and the minimal effective dose (Mus musculus [3]) was 30 mg/kg. The minimal effective dose (Mus musculus [7]) was 30 mg/kg, the Activity (Mus musculus [8]) was 21.66% and the Activity (Mus musculus [5]) was “Non-toxic”. For the same compound, the Activity (Mus musculus [6]) was “Non-toxic”.
In the case of `O=C(NN1C(=O)C(Cl)C1c1ccccc1Cl)c1ccncc1` (stereo not given), the Activity (Mus musculus [9]) is reported as “inactive”, the Activity (Mus musculus [1]) is reported as “inactive” and the minimal effective dose (Mus musculus [3]) is reported as 300 mg/kg. For the same compound, the Activity (Mus musculus [4]) was “inactive”, the Activity (Mus musculus [5]) was “Non-toxic” and the Activity (Mus musculus [6]) was “Non-toxic”.
For `O=C1NC(=O)C(c2ccccc2)(c2ccccc2)N1` [PHENYTOIN], the Activity (Mus musculus [9]) was “inactive”, the Activity (Mus musculus [1]) was “inactive” and the minimal effective dose (Mus musculus [3]) was 30 mg/kg. It also gave a minimal effective dose (Mus musculus [7]) of 30 mg/kg, an MTC (Mus musculus [11]) of 100 mg/kg and an MTC (Mus musculus [12]) of 100 mg/kg.
